Values joined by “and” are separate entries in the source; they are usually repeats but may differ in a detail not shown here. Identical values can stand only once. Like-named read-outs stand apart in the source and are kept apart here.
Tests used:
[1] = parameters: species or system rabbits; conditions: rabbit, in vivo
Experimental: [26,26,26,27,27,27]-^2 H-cholesterol shown if FIG. 2 was prepared by Dr. Eric Stohler of Biodesign, Inc. The deuterium in the labeled cholesterol is located on stable terminal methyl groups of the side chain. When both: ^13 C-cholesterol and ^2 H-cholesterols were given intravenously or orally to rabbits there was no change in the plasma ratio of the two cholesterols over one week.

[2] = Dual stable isotope cholesterol absorption study in healthy subjects (oral and intravenous tracers, plasma tracer ratio by GC/MS on day 3); assay type: in vivo, human; conditions: for Fa at 72 h: human, in vivo, po, 30 mg
Experimental: There is a paucity of information concerning cholesterol absorption in humans, and one prominent reason for this deficiency is the need to administer long-lived radioactive cholesterol tracers. To eliminate this hazard, we have developed a procedure, based on that of Zilversmit (Prof. Soc. Exp. Med. Biol. 140:862-865, 1972), employing stable isotopic tracers of cholesterol. One metabolically stable cholesterol tracer is administered orally and a second metabolically stable cholesterol tracer is administered intravenously on day 0. The ratio of the two tracers is determined after equilibration on about day 3 by gas chromatography-mass spectrometry (GC/MS) with selected ion monitoring. Ion current peaks corresponding to the first and second tracers are corrected for spillover From each other and from endogenous cholesterol. Percent cholesterol absorption is calculated as the ratio of the cholesterol tracers. The use of stable cholesterol isotopes for the study of cholesterol absorption is feasible, precise, safe and allows broad application of cholesterol absorption measurements in humans including women and children, thereby Facilitating clinical genetic studies in groups about which little current data is available.
There is a waiting period after the cholesterol tracers of this invention have been administered to a human subject. The waiting period allows the ingested cholesterol tracer to reach equilibrium in the subject's blood. The waiting period can range from 12 hours to about 5 days or more. However, it is preferred that the waiting period is from about 24 hours to about 96 hours. Following the waiting period, a blood sample is withdrawn from the subject and analyzed by GC/MS techniques to determine the relative amount of the two cholesterol tracers and the natural cholesterols in the sample. The GC/MS data is corrected to provide the actual relative amounts of the cholesterol tracers in the blood sample and a cholesterol absorption percentage is calculated based upon the amount of cholesterol tracers introduced into the body in relation to the amount in the blood samples.
Five healthy subjects (three men and two women, age 22-34) underwent two cholesterol absorption studies separated by 4-6 weeks. Out patient subjects received a National Cholesterol Education Program step I diet prepared in the metabolic kitchen of the Washington University Clinical Research Center for five days. Starting two days before testing and ending three days after testing. The metabolically stable cholesterols were given on day 0 with a meal containing 240 ml of whole milk as a source of fat to assure contraction of the gallbladder.
[23,24,25,26,27]-^13 C-cholesterol suitable for intra venous administration was prepared in a laminar flow hood. The labeled cholesterol was dissolved at 5 mg/ml in USP ethanol in a sterile container, water was added to 10% by volume in order to increase virucidal activity, and the solution was allowed to stand at room temperature for at least 6 hrs. The solvents were then sterilely removed and the cholesterol residue dissolved at 20 mg/ml in ethanol and passed through a 0.22 micron solvent-resistant filter. Aliquots were tested for sterility and dried aliquots for pyrogenicity using the Limulus assay, and the stock was kept frozen at -70° C. On the day of the experiment both the ^13 C-cholesterol and a small amount of 10% Intralipid were warmed to 37° C. and the ethanolic cholesterol was added dropwise to 4 volumes of Intralipid. After 5 minutes at 37° C. and 15 min. at room temperature the mixture was put through a 0.8 micron particulate filter. More than 94% of the labeled cholesterol passed through the filter. An aliquot containing approximately 15 mg. ^13 C-cholesterol was drawn into atared syringe and weighed. The syringe contents were injected over 5 minutes into a running saline infusion and the syringe was washed several times with saline. […]

[3] = humans, background; cited from earlier work
[4] = Preparation of Intralipid infusate: filter passage and residual tracer in syringe and lines; assay type: physicochemical
Experimental: [23,24,25,26,27]-^13 C-cholesterol suitable for intra venous administration was prepared in a laminar flow hood. The labeled cholesterol was dissolved at 5 mg/ml in USP ethanol in a sterile container, water was added to 10% by volume in order to increase virucidal activity, and the solution was allowed to stand at room temperature for at least 6 hrs. The solvents were then sterilely removed and the cholesterol residue dissolved at 20 mg/ml in ethanol and passed through a 0.22 micron solvent-resistant filter. Aliquots were tested for sterility and dried aliquots for pyrogenicity using the Limulus assay, and the stock was kept frozen at -70° C. On the day of the experiment both the ^13 C-cholesterol and a small amount of 10% Intralipid were warmed to 37° C. and the ethanolic cholesterol was added dropwise to 4 volumes of Intralipid. After 5 minutes at 37° C. and 15 min. at room temperature the mixture was put through a 0.8 micron particulate filter. More than 94% of the labeled cholesterol passed through the filter. An aliquot containing approximately 15 mg. ^13 C-cholesterol was drawn into atared syringe and weighed. The syringe contents were injected over 5 minutes into a running saline infusion and the syringe was washed several times with saline.

| change in the plasma ratio of the two cholesterols [1] | labeled cholesterol passed through the filter ([4]; ethanolic cholesterol in 4 volumes of 10% Intralipid, 0.8 micron particulate filter) | solubilization of cholesterol ([4]; with use of Intralipid) | tracer cholesterol found in the syringe and intravenous lines ([4]; with use of Intralipid) | SMILES | Fa at 72 h ([2]; mean of five healthy subjects, test 1, read-out: mean cholesterol absorption, Test 1) [%] | Fa at 72 h ([2]; mean of five healthy subjects, test 2, 4-6 weeks later, read-out: mean cholesterol absorption, Test 2) [%] | Fa at 72 h ([2]; test 1, five healthy subjects, read-out: cholesterol absorption, range between subjects) [%] | cholesterol absorption, Test 1 ([2]; individual subjects 1-5, oral ^2 H-cholesterol about 30 mg, i.v. ^13 C-cholesterol about 15 mg, plasma at three days, 4320 min) | cholesterol absorption, Test 2 ([2]; individual subjects 1-5, second study 4-6 weeks after Test 1, plasma at three days, 4320 min) | mean cholesterol absorption, Test 1 ([2]; mean of five healthy subjects, test 1, 4320 min) [%] | percent of cholesterol absorbed [3] |
| --- | --- | --- | --- | --- | --- | --- | --- | --- | --- | --- | --- |
| no change | – | – | – | [2H]C([2H])([2H])C(CCC[C@@H](C)[C@H]1CC[C@H]2[C@@H]3CC=C4C[C@@H](O)CC[C@]4(C)[C@H]3CC[C@]12C)C([2H])([2H])[2H] [^2 H-cholesterol, [26,26,26,27,27,27]-^2 H-cholesterol] | – | – | – | – | – | – | – |
| – | – | – | – | CC(C)CCC[C@@H](C)[C@H]1CC[C@H]2[C@@H]3CC=C4C[C@@H](O)CC[C@]4(C)[C@H]3CC[C@]12C [cholesterol] | 59.3 ± 8.4 | 57.6 ± 8.2 | 47 to 71 | 59.4% and 62.2% and 70.5% and 47.4% and 57.1% | 62.4% and 58.0% and 67.2% and 45.4% and 55.0% | 59 | 15% to 75 |
| no change | More than 94% | quantitatively solubilized | less than 0.4% | C[C@H](C[13CH2][13CH2][13CH]([13CH3])[13CH3])[C@H]1CC[C@H]2[C@@H]3CC=C4C[C@@H](O)CC[C@]4(C)[C@H]3CC[C@]12C [^13 C-cholesterol, [23,24,25,26,27]-^13 C-cholesterol] | – | – | – | – | – | – | – |

Source: patent US5432058A, “Method for measuring human cholesterol absorption using metabolically stable isotopes” (priority 1992, dated 1995)
